Results from the supplement of paper PMC10307832.

How the values were obtained:
Assay in all cases: relative viability (nuclei count vs DMSO), 5 days (fraction); higher = more cells survive
[1] = compound: C1=CC2=NC=CN=C2C=C1/C=C/3\C(=O)NC(=O)S3 + Nc1nc2[nH]cc(CCc3ccc(C(=O)N[C@@H](CCC(=O)O)C(=O)O)cc3)c2c(=O)[nH]1 [Pemetrexed] (partner 0.2 µM)
Outline: (§1)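 Nuclei were stained with Hoechst during a one-step fixation (final 0.05% Triton X-100, 1% formaldehyde, 1 ug/ml Hoechst) carried out 5 days after dosing, then counted on 4× images. The cells, lung cancer lines in 1536-well plates, had been dosed by pin tool the day after seeding with one drug alone or a fixed anchor-drug dose plus five library-drug doses (not always all listed) in √10 steps. Relative viability is the nuclei count in treated wells divided by that in vehicle wells, and each value is the median of duplicate plates.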

[2] = compound: CCN1CCN(c2ccc(Nc3cc(N(C)C(=O)Nc4c(Cl)c(OC)cc(OC)c4Cl)ncn3)cc2)CC1 [BGJ398] + COc1cccc2cc(-c3nc([C@H]4CC[C@H](C(=O)O)CC4)n4ncnc(N)c34)[nH]c12 [OSI-027] (partner 0.5 µM)
Outline: as §1

[3] = compound: CCN1CCN(c2ccc(Nc3cc(N(C)C(=O)Nc4c(Cl)c(OC)cc(OC)c4Cl)ncn3)cc2)CC1 [BGJ398] + Nc1ncn([C@H]2C[C@H](O)[C@@H](CO)O2)c(=O)n1 [Decitabine] (partner 2 µM)
Outline: as §1

[4] = compound: CCN1CCN(c2ccc(Nc3cc(N(C)C(=O)Nc4c(Cl)c(OC)cc(OC)c4Cl)ncn3)cc2)CC1 [BGJ398] + O=C(c1cc(Cc2n[nH]c(=O)c3ccccc23)ccc1F)N1CCN(C(=O)C2CC2)CC1 [Olaparib] (partner 8 µM)
Outline: as §1

Cell Line | relative viability ([1]; first compound 0.02 µM) | relative viability ([1]; first compound 0.2 µM) | relative viability ([1]; first compound 0.6325 µM) | relative viability ([1]; first compound 2 µM) | relative viability ([2]; first compound 0.01 µM) | relative viability ([2]; first compound 0.03162 µM) | relative viability ([2]; first compound 0.1 µM) | relative viability ([2]; first compound 0.3162 µM) | relative viability ([2]; first compound 1 µM) | relative viability ([3]; first compound 0.01 µM) | relative viability ([3]; first compound 0.03162 µM) | relative viability ([3]; first compound 0.1 µM) | relative viability ([3]; first compound 0.3162 µM) | relative viability ([3]; first compound 1 µM) | relative viability ([4]; first compound 0.01 µM) | relative viability ([4]; first compound 0.03162 µM) | relative viability ([4]; first compound 0.1 µM) | relative viability ([4]; first compound 0.3162 µM) | relative viability ([4]; first compound 1 µM) | relative viability ([1]; first compound 0.06325 µM)
HCC-366 | 0.117 | 0.163 | 0.164 | 0.21 | 0.843 | 0.964 | 0.96 | 0.822 | 0.979 | 0.336 | 0.371 | 0.355 | 0.306 | 0.347 | 0.368 | 0.378 | 0.422 | 0.335 | 0.448 | –
EMC-BAC-2 | 0.402 | 0.44 | 0.434 | 0.417 | 0.357 | 0.417 | 0.398 | 0.333 | 0.37 | 0.96 | 1.03 | 0.97 | 0.915 | 0.932 | 0.456 | 0.568 | 0.519 | 0.547 | 0.456 | 0.424
NCI-H2405 | 1.1 | 1.22 | 1.05 | 0.859 | 0.644 | 0.724 | 0.664 | 0.666 | 0.655 | 0.703 | 0.74 | 0.81 | 0.734 | 0.741 | 0.818 | 0.954 | 0.926 | 0.923 | 0.768 | 1.28
NCI-H358 | 0.166 | 0.177 | 0.186 | 0.181 | 0.611 | 0.793 | 0.81 | 0.798 | 1 | 0.184 | 0.215 | 0.208 | 0.201 | 0.2 | 0.744 | 0.622 | 0.619 | 0.698 | 0.584 | 0.18
NCI-H1944 | 0.537 | 0.575 | 0.564 | 0.584 | 0.364 | 0.425 | 0.436 | 0.388 | 0.329 | 0.401 | 0.404 | 0.448 | 0.43 | 0.48 | 0.432 | 0.416 | 0.425 | 0.385 | 0.445 | 0.587
NCI-H2342 | 0.615 | 0.713 | 0.759 | 0.644 | 0.694 | 0.628 | 0.629 | 0.674 | 0.622 | 0.725 | 0.808 | 0.714 | 0.758 | 0.815 | 0.517 | 0.46 | 0.541 | 0.482 | 0.444 | 0.859
EPLC-272H | 0.351 | 0.43 | 0.353 | 0.318 | 0.283 | 0.279 | 0.248 | 0.241 | 0.293 | 0.391 | 0.3 | 0.38 | 0.303 | 0.323 | 0.626 | 0.829 | 0.594 | 0.797 | 0.656 | 0.266
NCI-H1915 | 0.463 | 0.489 | 0.478 | 0.483 | 0.59 | 0.614 | 0.62 | 0.582 | 0.687 | 0.271 | 0.248 | 0.28 | 0.281 | 0.241 | 0.231 | 0.285 | 0.252 | 0.256 | 0.246 | 0.456
